Measurements: publication PMC11833736 (ACS Pharmacology & Translational Science, 2025)
Values joined by “and” are separate entries in the source; they are usually repeats but may differ in a detail not shown here. Identical values can stand only once.

Experiments:
SH-SY5Y cells [1] = assay: Intracellular Ca content by ICP-MS, dark or green light; format: cell-based; conditions: kept in the dark
Protocol: Six hours after compound addition, the cells were irradiated with green light or kept in the dark. Intracellular Ca^2+ levels were then assessed by ICP-MS 24 h after light activation. The NMDA and α-amino-3-hydroxy-5-methyl-4-isoxazole propionic acid (AMPA) receptors being glutamate-gated cation channels allow for an increase of calcium permeability of the neuron membrane; we also used L-glutamic acid (GA, 10 μM), a known NMDA and AMPA activator, as positive control in this assay.
(§1) 1 mL of SH-SY5Y cells were seeded in 12-well plates (Greiner, No. 665180; 500.000 cells per well). […] After an additional 24 h of incubation, the cells were trypsined, collected, and centrifuged. The resulting cell pellet was dissolved in 1 mL of PBS and counted via a BioRad TC20 automated cell counter. Afterward, the solution was centrifuged and washed again with PBS with subsequent centrifuging two more times. The resulting cell pellet was digested in 0.5 mL of HNO3 overnight in a hot oven (90 °C). The solution was diluted with Milli-Q water to 10 mL, and the Ru and Ca content [ppb] was measured via ICP-MS.

SH-SY5Y cells [2] = assay: Cytotoxicity, SRB end-point assay, dark or green light; format: cell-based
U-87MG cells = assay: Ru cellular uptake by ICP-MS; format: in vitro ADME; conditions: 10 μM; for Ru cellular uptake: dark
Text: The cellular accumulation of Ru^2+ can provide additional information about how differences in anticancer efficacy may relate to the amount of the Ru prodrug in the cell before light activation. For instance, low uptake often leads to limited cytotoxicity due to limited access to the drug target. […] Similar results have been observed in A549 lung cancer cells previously.[56] […] For unknown reasons, it appears that the amine bridge in the i-diqa ligand facilitates the uptake of ruthenium compound [3](PF6)2.
Materials: 65% nitric acid (Suprapur, Merck) was used in the sample digestion process, while diluted 1% nitric acid (v/v) was employed as a carrying solution throughout the ICP measurements. For preparation of calibration and internal standards, National Institute of Standards and Technology (NIST)-traceable 1000 mg/L elemental standards were used (TraceCERT, Fluka). Approximately 18 MΩ cm^–1 water (Milli-Q) was employed in all sample preparation and analysis steps.
Instrumentation: Calibration standards were prepared in a Secuflow fume hood (SCALA) to prevent contamination by atmospheric particulates. The standard samples and measurement samples were analyzed for trace elements using the NexION 2000 (PerkinElmer) ICP-MS instrument equipped with a concentric glass nebulizer and a Peltier-cooled glass spray chamber. An SC2 DX autosampler (PerkinElmer) was connected to ICP-MS for sample introduction. Syngistix software for ICP-MS (v.2.5, PerkinElmer) was used for all data recording and processing. Five trace elemental calibration standards for ICP-MS analysis were prepared using NIST-traceable 1000 mg/L Ru standards: 0, 1, 5, 20, and 100 μg/L. Samples were analyzed without dilution in the original delivery containers to minimize the possibility of contamination. Here, 10 μg/L Rh and In were used as internal standards. To check the calibration, samples were analyzed with a blank measurement and a repeat measurement with one of the calibration standards.
Sample preparation: 1 mL of U-87MG cells were seeded in 12-well plates (Greiner, No. 665180; 400.000 cells per well). […] Afterward, the cells were trypsined, collected, and centrifuged. The resulting cell pellet was dissolved in 1 mL of PBS and counted via a BioRad TC20 automated cell counter. Afterward, the solution was centrifuged and washed again with PBS with subsequent centrifuging. This washing step was repeated twice. The resulting cell pellet was digested in 0.5 mL of 65% HNO3 overnight in a hot oven (90 °C). The solution was diluted with Milli-Q water to 10 mL, and the Ru content [ppb] was measured by ICP-MS.

SH-SY5Y cells [3] = assay: Ru cellular uptake by ICP-MS, dark or green light; format: in vitro ADME; conditions: 20 μM, kept in the dark
Protocol: These surprising results led us to further investigate whether the uptake of the respective compounds plays a pivotal role in the alternation of the proliferation. […] The complex was allowed to incubate for 24 h after irradiation before the ruthenium cellular content was analyzed by ICP-MS. […] We finally decided to incubate the SH-SY5Y cells with the EC50 values obtained from the cytotoxicity experiment using the U-87MG cell, as those procedures would allow one to observe the effect of the prodrug on the healthy neuron-like cells when treated with the phototoxic compound dose. […] Overall, cellular uptake in neuron-like SH-SY5Y cells followed the same trends as those for GBM cells U-87MG in the dark, while uptake was much higher after light activation.
as §1

AChE = AChE (Electrophorus electricus, UniProt O42275)
Sequence of AChE (O42275 24-633): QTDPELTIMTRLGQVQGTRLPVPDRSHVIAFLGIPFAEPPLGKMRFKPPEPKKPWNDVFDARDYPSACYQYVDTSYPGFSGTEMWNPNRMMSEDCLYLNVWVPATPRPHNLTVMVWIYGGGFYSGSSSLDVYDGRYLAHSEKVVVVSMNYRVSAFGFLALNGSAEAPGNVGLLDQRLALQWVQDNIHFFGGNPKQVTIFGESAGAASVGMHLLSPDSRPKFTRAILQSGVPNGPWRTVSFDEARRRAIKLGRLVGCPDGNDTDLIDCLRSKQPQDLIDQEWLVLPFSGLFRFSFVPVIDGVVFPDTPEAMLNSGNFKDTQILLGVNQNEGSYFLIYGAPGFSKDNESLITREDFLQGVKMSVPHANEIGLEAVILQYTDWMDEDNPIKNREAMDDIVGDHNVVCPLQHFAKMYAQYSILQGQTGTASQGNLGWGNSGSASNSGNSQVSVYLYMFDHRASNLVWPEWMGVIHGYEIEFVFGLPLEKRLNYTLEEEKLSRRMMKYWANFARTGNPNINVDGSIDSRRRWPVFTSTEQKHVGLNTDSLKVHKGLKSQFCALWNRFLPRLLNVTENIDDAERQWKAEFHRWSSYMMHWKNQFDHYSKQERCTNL
Text: Among all enzymes involved in transmembrane signaling, another important one is AChE. In a modified procedure (for further details, see the Experimental Section), we checked whether the ruthenium complexes were able to inhibit AChE in the dark and after light activation. The colorimetric assay used Ellman’s reagent. […] The conversion of 5,5′-dithiobis(2-nitrobenzoic acid) (DTNB) to yellow 2-nitro-5-thiobenzoate (TNB) initiated by the addition of acetylthiocholine was then detected by UV–vis spectroscopy every 5 min for a total time of […]. […] The solution was further diluted 1:50 in 50 mM Tris buffer, pH = 8 (10 μL in 490 μL), and then placed in 4.5 mL of 50 mM Tris buffer, pH = 8. […] 50 μL of the enzyme and 50 μL of the complex solution were added to a 96-well plate in triplicates. […] Meanwhile, a 10 mM solution of acetylthiocholine iodide and 10 mM DTNB was prepared. After the respective time, in each well, 5 μL of the acetylthiocholine iodide and DTNB mixture was added. The absorbance was read at a microplate Tecan reader at 410 nm every 5 min for in total 40 min.

[4] = Stability in the dark in the presence of L-glutathione (UV-vis); format: physicochemical; conditions: water, 37 °C, 500 μM L-glutathione, spectra after 2 and 24 h
Protocol: The synthesis and characterization of all three complexes have been described earlier and can be found in refs ([56]) and ([57]). In water or OptiMEM cell medium, the complexes were also previously found to be stable in the dark for at least 24 h at 37 °C. Upon blue or green light irradiation (λ = 452 or 517 nm), they are activated by photosubstitution of the thioether ligand to afford the aqua ruthenium complex and the free thioether ligand.[56] […] The UV–vis spectra were then recorded after 2 and 24 h separately. […] Additionally, we could not observe any color change, which is typical when one of the ligands is exchanged against another one.
UV–vis spectroscopy experiments were performed on a Cary 60 Varian spectrometer equipped with a temperature control set to 310 K and a magnetic stirrer. The measurements were performed in a quartz cuvette containing 3 mL of solution. […] Then, the UV–vis spectrum was recorded without the presence of GSH. After 4 min, GSH was added (0.5 mM) and UV–vis spectra were recorded directly after and after 2 and 24 h, while the vial was kept in the dark and at 37 °C.

[5] = system: U-87MG glioblastoma cells; assay: Cytotoxicity, SRB end-point assay, dark or green light; conditions: read-out: EC50,D, kept in the dark, 24 h + 48 h incubation, normoxic (21% O2)
A375 skin melanoma = system: A375 skin melanoma; set-up: method as in PMID 31625740, PMID 29220545, PMID 34378103; conditions: cited from earlier work
[6] = system: A549 lung cancer cell lines; set-up: method as in PMID 31625740, PMID 29220545, PMID 34378103; conditions: cited from earlier work
[7] = system: U-87MG glioblastoma cells; assay: Cytotoxicity determined by MTT (3 mg/mL); format: cell-based; conditions: Homo sapiens, dark

SMILES: N[C@@H](CCC(=O)O)C(=O)O [L-glutamic acid, reference compound]
- Ca uptake, Dark (SH-SY5Y cells [1]; 10 μM): 322.84± 53 ng Ca/mio. cells
- Ca uptake, Dark (SH-SY5Y cells [1]; 10 μM, listed as Glutamate): 322 ng Ca/mio. cells

SMILES: CSCCO.F[P-](F)(F)(F)(F)F.F[P-](F)(F)(F)(F)F.[Ru+2].c1ccc(-c2cccc(-c3ccccn3)n2)nc1.c1ccc(-c2ccccn2)nc1 [[1](PF6)2]
- concentration required to block cell growth (SH-SY5Y cells [2]; in the dark): > 40 µM
- EC50 (SH-SY5Y cells [2]; kept in the dark, SRB, normoxic (21% O2)): > 100 µM
- Uptake in % (U-87MG cells; 6 h): 0.56%
- Ru cellular uptake (U-87MG cells; 6 h incubation): 0.6 ng Ru/mio. cells and 0.60 ± 0.38 ng Ru/mio. cells
- Uptake in % (U-87MG cells; 24 h): 0.43%
- Ru cellular uptake (U-87MG cells; 24 h incubation): 0.42 ng Ru/mio. cells and 0.42 ± 0.11 ng Ru/mio. cells
- overall uptake (U-87MG cells; one figure given for 6 and 24 h): 0.5%
- Ru uptake, Dark (SH-SY5Y cells [3]): 0.40 ± 0.25 ng Ru/mio. cells and 0.4 ng Ru/mio. cells
- Ca uptake, Dark (SH-SY5Y cells [1]; 20 μM): 467.78 ± 122 ng Ca/mio. cells and 467 ng Ca/mio. cells
- PI (AChE; AChE, IC50 dark / IC50 green light): >2.2
- IC50 (AChE; read-out: IC50,D, isolated AChE, 30 min in the dark, read 35 min after DTNB addition): > 15 µM
- stability in the dark with GSH (UV-vis, in words) [4]: no change suggesting ligand exchange on ruthenium was observed
- EC50 [5]: > 100 µM

SMILES: O.[Ru+2].c1ccc(-c2cccc(-c3ccccn3)n2)nc1.c1ccc(-c2ccccn2)nc1 [[4]^2+, [Ru(tpy)(bpy)(OH2)]^2+]
- toxicity (in words) (A375 skin melanoma): nontoxic
- toxicity (in words) [6]: nontoxic

SMILES: Cn1nnc2c(C(N)=O)ncn2c1=O [temozolomide]
- EC50 [7]: > 100 µM
